# Results: patent US11401270B2, “Alcoxyamino derivatives for treating pain and pain related conditions” (ESTEVE PHARMACEUTICALS, S.A., priority 2017, dated 2022)
# Molecular target: Human α2δ-1 subunit of Cav2.2 calcium channel (Homo sapiens (Human), UniProt P54289)
# Test: Binding Assay to Human α2δ-1 Subunit of Cav2.2 Calcium Channel
# Details: Table 1; human α2δ-1 enriched membranes, 15 nM [3H]-Gabapentin; read-out: Ki(nM) alpha2delta Hum
# Procedure: Binding Assay to Human α2δ-1 Subunit of Cav2.2 Calcium Channel.
# NSB (non specific binding) was measured by adding 10 μM pregabalin. The binding of the test compound was measured in five different concentrations. After 60 min incubation at 27° C., binding reaction was terminated by filtering through Multiscreen GF/C (Millipore) presoaked in 0.5% polyethyleneimine in Vacuum Manifold Station, followed by 3 washes with ice-cold filtration buffer containing 50 mM Tris-HCl, pH 7.4.
# Filter plates were dried at 60° C. for 1 hour and 30 μl of scintillation cocktail were added to each well before radioactivity reading.
# Chain of Human α2δ-1 subunit of Cav2.2 calcium channel (P54289 25-1103): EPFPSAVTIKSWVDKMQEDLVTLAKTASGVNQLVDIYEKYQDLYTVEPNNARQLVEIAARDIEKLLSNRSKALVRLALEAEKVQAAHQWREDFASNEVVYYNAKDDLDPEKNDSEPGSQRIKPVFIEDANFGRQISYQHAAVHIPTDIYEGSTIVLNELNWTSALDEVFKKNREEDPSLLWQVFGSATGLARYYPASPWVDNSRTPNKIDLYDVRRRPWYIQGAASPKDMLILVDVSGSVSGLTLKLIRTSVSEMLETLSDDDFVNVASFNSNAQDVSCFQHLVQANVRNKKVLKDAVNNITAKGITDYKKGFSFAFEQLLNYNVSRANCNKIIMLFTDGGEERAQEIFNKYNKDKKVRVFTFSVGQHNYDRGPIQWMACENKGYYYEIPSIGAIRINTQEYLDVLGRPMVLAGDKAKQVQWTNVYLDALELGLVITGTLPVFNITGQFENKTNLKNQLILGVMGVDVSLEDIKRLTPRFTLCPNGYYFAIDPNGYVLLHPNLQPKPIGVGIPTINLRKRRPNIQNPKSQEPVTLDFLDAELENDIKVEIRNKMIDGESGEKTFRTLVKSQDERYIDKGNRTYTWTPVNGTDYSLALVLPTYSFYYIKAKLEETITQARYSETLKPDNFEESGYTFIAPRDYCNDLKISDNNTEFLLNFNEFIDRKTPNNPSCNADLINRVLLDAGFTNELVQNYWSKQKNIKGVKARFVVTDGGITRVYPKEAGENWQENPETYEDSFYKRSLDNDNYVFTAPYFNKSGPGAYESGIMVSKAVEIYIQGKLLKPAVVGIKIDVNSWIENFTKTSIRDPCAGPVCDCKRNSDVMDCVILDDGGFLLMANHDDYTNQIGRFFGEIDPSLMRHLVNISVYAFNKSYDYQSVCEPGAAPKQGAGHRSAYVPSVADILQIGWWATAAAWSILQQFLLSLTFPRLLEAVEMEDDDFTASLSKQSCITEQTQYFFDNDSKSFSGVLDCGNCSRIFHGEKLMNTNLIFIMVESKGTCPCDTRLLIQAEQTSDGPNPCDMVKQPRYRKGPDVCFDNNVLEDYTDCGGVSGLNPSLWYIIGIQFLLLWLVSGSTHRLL
row,SMILES,Ki
1,CNCC[C@H](OCc1cccc(N2CCN(C)c3ccccc3C2=O)c1)c1ccccc1 [Example 49],> 3000 nM
2,"CNCCC(Oc1cccc(N2CCN(C)c3ccccc3C2=O)c1)c1cccs1 (stereo not shown) [Example 53, 1-Methyl-4-(3-(3-(methylamino)-1-(thiophen-2-yl)propoxy)phenyl)-1,2,3,4-tetrahydro-5H-benzo[e][1,4]diazepin-5-one]",500 to 3000 nM
3,"CNCCC(Oc1cccc(N2CCN(C)c3cccnc3C2=O)c1)c1cccs1 (stereo not shown) [Example 57, 1-Methyl-4-(3-(3-(methylamino)-1-(thiophen-2-yl)propoxy)phenyl)-1,2,3,4-tetrahydro-5H-pyrido[3,2-e][1,4]diazepin-5-one]",500 to 3000 nM
4,"CNCCC(Oc1cccc(N2CCNCCC2=O)c1)c1cccs1 (stereo not shown) [Example 59, 4-(3-(3-(Methylamino)-1-(thiophen-2-yl)propoxy)phenyl)-1,4-diazepan-5-one]",500 to 3000 nM
5,"CCNCC(=O)N1CCC(=O)N(c2cccc(OC(CCNC)c3cccs3)c2)CC1 (stereo not shown) [Example 68, 1-(Ethylglycyl)-4-(3-(3-(methylamino)-1-(thiophen-2-yl)propoxy)phenyl)-1,4-diazepan-5-one]",500 to 3000 nM
6,"CNCCC(Oc1cccc(N2CCN(C)c3cnccc3C2=O)c1)c1cccs1 (stereo not shown) [Example 73, 1-Methyl-4-(3-(3-(methylamino)-1-(thiophen-2-yl)propoxy)phenyl)-1.2,3,4-tetrahydro-5H-pyrido[3,4-e][1,4]diazepin-5-one]",100 to 500 nM
7,"CNCCC(Oc1cccc(N2CCN(C)c3cc(F)cnc3C2=O)c1)c1cccs1 (stereo not shown) [Example 74, 8-Fluoro-1-methyl-4-(3-(3-(methylamino)-1-(thiophen-2-yl)propoxy)phenyl)-1,2,3,4-tetrahydro-5H-pyrido[3,2-e][1,4]diazepin-5-one]",> 3000 nM
8,"CNCC(OCc1ccc(N2CCN(C)c3ccccc3C2=O)cc1)c1ccccc1 (stereo not shown) [Example 85, 1-Methyl-4-(4-((2-(methylamino)-1-phenylethoxy)methyl)phenyl)-1,2,3.4-tetrahydro-5H-benzo[e][1,4]diazepin-5-one]",> 3000 nM
9,"CNCCC(OCc1ccc(CN2CCN(C)c3ccccc3C2=O)cc1)c1ccccc1 (stereo not shown) [Example 88, 1-Methyl-4-(4-((3-(methylamino)-1-phenylpropoxy)methyl)benzyl)-1,2,3,4-tetrahydro-5H-benzo[e][1,4]diazepin-5-one]",> 3000 nM
10,"CNCCC(OCc1cccc(CN2CCN(C)c3ccccc3C2=O)c1)c1ccccc1 (stereo not shown) [Example 89, 1-Methyl-4-(3-((3-(methylamino)-1-phenylpropoxy)methyl)benzyl)-1,2,3,4-tetrahydro-5H-benzo[e][1,4]diazepin-5-one]",> 3000 nM
11,"CNCCC(Oc1ccc(CN2CCCN(C)CC2)cc1)c1cccs1 (stereo not shown) [Example 102, N-methyl-3-(4-((4-methyl-1,4-diazepan-1-yl)methyl)phenoxy)-3-(thiophen-2-yl)propan-1-amine]",> 3000 nM
12,"CNCC[C@H](Oc1ccc(CN2CCCn3cccc3C2=O)cc1)c1cccs1 [Example 105, (S)-2-(4-(3-(methylamino)-1-(thiophen-2-yl)propoxy)benzyl)-2,3,4,5-tetrahydro-1H-pyrrolo[1,2-a][1,4]diazepin-1-one]",500 to 3000 nM
13,"CNCCC(Oc1cccc(CN2CCN(C)c3ccccc3C2=O)c1)c1cccs1 (stereo not shown) [Example 106, 1-Methyl-4-(3-(3-(methylamino)-1-(thiophen-yl)propoxy)benzyl)-1,2,3,4-tetrahydro-5H-benzo[e][1,4]diazepin-5-one]",500 to 3000 nM
14,"CNCC[C@H](Oc1ccc(CN2CCN(C)c3ncccc3C2=O)c(C)c1)c1cccs1 [Example 107, (S)-1-methyl-4-(2-methyl-4-(3-(methylamino)-1-(thiophen-2-yl)propoxy)benzyl)-1,2,3,4-tetrahydro-5H-pyrido[2,3-e][1,4]diazepin-5-one]",< 100 nM
15,"CNCC(OCc1ccc(CN2CCN(C)c3ccccc3C2=O)cc1)c1ccccc1 (stereo not shown) [Example 109, 1-Methyl-4-(4-((2-(methylamino)-1-phenylethoxy)methyl)benzyl)-1,2,3,4-tetrahydro-5H-benzo[e][1,4]diazepin-5-one]",> 3000 nM
16,"CNCCC(Oc1cccc(CN2CCN(C)c3ccccc3C2=O)c1)c1ccccc1 (stereo not shown) [Example 113, 1-Methyl-4-(3-(3-(methylamino)-1-phenylpropoxy)benzyl)-1,2,3,4-tetrahydro-5H-benzo[e][1,4]diazepin-5-one]",> 3000 nM
17,"CNCC[C@H](Oc1ccc(CN2CCCn3nc(C)cc3C2=O)c(C)c1)c1cccs1 [Example 124, (S)-2-methyl-5-(2-methyl-4-(3-(methylamino)-1-(thiophen-2-yl)propoxy)benzyl)-5,6,7,8-tetrahydro-4H-pyrazolo[1,5-a][1,4]diazepin-4-one]",< 100 nM
18,"CNCC[C@H](Oc1ccc(CN2CCN(C)c3ncccc3C2=O)c(C2CC2)c1)c1cccs1 [Example 128, (S)-4-(2-cyclopropyl-4-(3-(methylamino)-1-(thiophen-2-yl)propoxy)benzyl)-1-methyl-1,2,3,4-tetrahydro-5H-pyrido[2,3-e][1,4]diazepin-5-one]",100 to 500 nM
19,"CNCC[C@H](Oc1ccc(CN2CCN(C)c3ncccc3C2=O)c(C(F)(F)F)c1)c1ccccc1 [Example 130, (S)-1-methyl-4-(4-(3-(methylamino)-1-phenylpropoxy)-2-(trifluoromethyl)benzyl)-1,2,3,4-tetrahydro-5H-pyrido[2,3-e][1,4]diazepin-5-one]",< 100 nM
20,"CNCC[C@H](Oc1ccc(CN2CCN(C)c3ncccc3C2=O)c(C2CC2)c1)c1ccccc1 [Example 133, (S)-4-(2-cyclopropyl-4-(3-(methylamino)-1-phenylpropoxy)benzyl)-1-methyl-1,2,3,4-tetrahydro-5H-pyrido[2,3-e][1,4]diazepin-5-one]",100 to 500 nM

# More lines, now with the values ahead:
row,Ki,SMILES
1,> 3000 nM,"CNCCC(OCc1ccc(N2CCN(C)c3ccccc3C2=O)cc1)c1ccccc1 (stereo not shown) [Example 46, 1-Methyl-4-(4-((3-(methylamino)-1-phenylpropoxy)methyl)phenyl)-1,2,3,4-tetrahydro-5H-benzo[e][1,4]diazepin-5-one]"
2,500 to 3000 nM,"CNCC[C@@H](OCc1cccc(N2CCN(C)c3ccccc3C2=O)c1)c1ccccc1 [Example 47, (R)-1-methyl-4-(3-((3-(methylamino)-1-phenylpropoxy)methyl)phenyl)-1,2,3,4-tetrahydro-5H-benzo[e][1,4]diazepin-5-one]"
3,500 to 3000 nM,"CNCCC(OCc1cccc(N2CCN(C)c3nc(C)ccc3C2=O)c1)c1ccccc1 (stereo not shown) [Example 48, 1,8-Dimethyl-4-(3-((3-(methylamino)-1-phenylpropoxy)methyl)phenyl)-1,2,3,4-tetrahydro-5H-pyrido[2,3-e][1,4]diazepin-5-one]"
4,> 3000 nM,"CNCCC(Oc1cccc(N2CC(=O)N(C)c3ccccc3C2=O)c1)c1cccs1 (stereo not shown) [Example 51, 1-Methyl-4-(3-(3-(methylamino)-1-(thiophen-2-yl)propoxy)phenyl)-3,4-dihydro-1H-benzo[e][1,4]diazepine-2,5-dione]"
5,> 3000 nM,"CNCCC(Oc1cccc(N2CCCN(C)CC2=O)c1)c1cccs1 (stereo not shown) [Example 52, 4-Methyl-1-(3-(3-(methylamino)-1-(thiophen-2-yl)procoxy)phenyl)-1,4-diazepan-2-one]"
6,100 to 500 nM,"CNCC[C@@H](Oc1cccc(N2CCN(C)c3nc(C)ccc3C2=O)c1)c1ccsc1 [Example 79, (R)-1,8-dimethyl-4-(3-(3-(methylamino)-1-(thiophen-3-yl)propoxy)phenyl)-1,2,3,4-tetrahydro-5H-pyrido[2,3-e][1,4]diazepin-5-one]"
7,500 to 3000 nM,"CCNC[C@@H]1CC(=O)N(c2cccc(O[C@@H](CCNC)c3cccs3)c2)CCN1C [Example 87, (S)-7-((ethylamino)methyl)-1-methyl-4-(3-((S)-3-(methylamino)-1-(thiophen-2-yl)propoxy)phenyl)-1,4-diazepan-5-one]"
8,500 to 3000 nM,"CNCC[C@H](Oc1ccc(CN2CCN(C)c3nc(N(C)C)ccc3C2=O)cc1)c1cccs1 [Example 95, (S)-8-(dimethylamino)-1-methyl-4-(4-(3-(methylamino)-1-(thiophen-2-yl)propoxy)benzyl)-1,2,3.4-tetrahydro-5H-pyrido[2,3-e][1,4]diazepin-5-one]"
9,100 to 500 nM,"CNCCC(Oc1ccc(CN2CCN(C)CCC2=O)cc1)c1cccs1 (stereo not shown) [Example 101, 1-Methyl-4-(4-(3-(methylamino)-1-(thiophen-2-yl)propoxy)benzyl)-1,4-diazepan-5-one]"
10,> 3000 nM,"CNCCC(Oc1ccc(CN2CCN(C)c3ccccc3C2=O)cc1)c1ccccc1 (stereo not shown) [Example 112, 1-Methyl-4-(4-(3-(methylamino)-1-phenylpropoxy)benzyl)-1,2,3,4-tetrahydro-5H-benzo[e][1,4]diazepin-5-one]"
11,100 to 500 nM,"CNCCC(Oc1ccc(CN2CCN(C)CCC2=O)c(F)c1)c1cccs1 (stereo not shown) [Example 122, 4-(2-Fluoro-4-(3-(methylamino)-1-(thiophen-2-yl)propoxy)benzyl)-1-methyl-1,4-diazepan-5-one]"
12,< 100 nM,"CNCC[C@H](Oc1ccc(CN2CCN(C)c3ncc(F)cc3C2=O)c(C)c1)c1cccs1 [Example 125, (S)-7-fluoro-1-methyl-4-(2-methyl-4-(3-(methylamino)-1-(thiophen-2-yl)propoxy)benzyl)-1,2,3,4-tetrahydro-5H-pyrido[2,3-e][1,4]diazepin-5-one]"
13,< 100 nM,"CNCC[C@H](Oc1ccc(CN2CCN(C)c3ncccc3C2=O)c(C(F)(F)F)c1)c1cccs1 [Example 127, (S)-1-methyl-4-(4-(3-(methylamino)-1-(thiophen-2-yl)propoxy)-2-(trifluoromethyl)benzyl)-1,2,3,4-tetrahydro-5H-pyrido[2,3-e][1,4]diazepin-5-one]"

# Same assay, conditions: Table 2, dual compounds; human α2δ-1 enriched membranes, 15 nM [3H]-Gabapentin; read-out: Ki(nM) alpha2delta Hum
row,Ki,SMILES
1,500 to 3000 nM,"CNCC[C@H](Oc1ccc(CN2CCCn3cccc3C2=O)cc1)c1cccs1 [Example 105, (S)-2-(4-(3-(methylamino)-1-(thiophen-2-yl)propoxy)benzyl)-2,3,4,5-tetrahydro-1H-pyrrolo[1,2-a][1,4]diazepin-1-one]"
